Reference: ChEMBL document CHEMBL1144454, “Design, synthesis, and biological activities of pyrrolylethanoneamine derivatives, a novel class of monoamine oxidases inhibitors” (J Med Chem, 2005)

Legend:
[1] = target: Amine oxidase [flavin-containing] A (Bos taurus) (UniProt P21398); assay: Inhibitory concentbovineion for bovine Monoamine oxidase A
[2] = target: Amine oxidase [flavin-containing] B (Bos taurus) (UniProt P56560)
[3] = Selectivity for bovine Monoamine oxidase A as ratio of Ki(MAO-B)/Ki(MAO-A)

Amine oxidase [flavin-containing] B (Bos taurus), sequence (P56560 whole entry, looked up): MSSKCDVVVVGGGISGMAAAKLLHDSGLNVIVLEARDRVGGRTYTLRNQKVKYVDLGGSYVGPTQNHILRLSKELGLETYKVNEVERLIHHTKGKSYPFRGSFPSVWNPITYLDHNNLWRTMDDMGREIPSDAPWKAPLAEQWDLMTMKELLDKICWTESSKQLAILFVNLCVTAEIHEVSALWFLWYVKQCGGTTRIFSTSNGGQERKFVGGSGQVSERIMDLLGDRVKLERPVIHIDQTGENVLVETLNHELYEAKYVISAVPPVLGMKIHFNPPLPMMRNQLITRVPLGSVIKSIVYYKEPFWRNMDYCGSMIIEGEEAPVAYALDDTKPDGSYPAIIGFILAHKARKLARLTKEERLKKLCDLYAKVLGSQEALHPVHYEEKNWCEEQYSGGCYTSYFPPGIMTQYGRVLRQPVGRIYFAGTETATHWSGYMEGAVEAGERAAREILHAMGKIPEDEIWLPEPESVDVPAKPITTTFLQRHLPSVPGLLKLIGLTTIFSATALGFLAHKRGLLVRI

| SMILES | Ki [1] [µM] | Ki [2] [µM] | A-selectivity [3] |
| --- | --- | --- | --- |
| Cn1cccc1C(=O)[C@H](c1ccccc1)N1CCCCC1 | 0.1 | 410 | 4100 |
| Cn1cccc1C(=O)C(c1ccccc1)N1CCCC1 (racemic) | 0.0075 | 600 |  |
| Cn1cccc1C(=O)C(c1ccccc1)N1CCCCC1 (racemic) | 0.096 | 500 | 5210 |
| CN1CCN(C(C(=O)c2cccn2C)c2ccccc2)CC1 (stereo not drawn) | 0.347 | > 100 | > 288 |
| Cn1cccc1C(O)C(c1ccccc1)N1CCCCC1 (racemic; form 1) [listing 1 of 2 here] | 31 | 9.22 |  |
| Cn1cccc1C(=O)CN1CCCCC1 | 0.007 | 15 |  |
| Cn1cccc1C(O)C(c1ccccc1)N1CCCCC1 (racemic; form 2) [listing 1 of 2 here] |  |  | 140 |
| Cn1cccc1C(O)C(c1ccccc1)N1CCCCC1 (single isomer, unassigned; form 1) [listing 1 of 2 here] | 0.52 | > 10 |  |
| Cn1cccc1C(=O)C(c1ccccc1)N1CCSCC1 (stereo not drawn) | 0.1 | > 100 | > 1000 |
| Cn1cccc1C(O)C(c1ccccc1)N1CCCCC1 (single isomer, unassigned; (-)) [listing 1 of 2 here] | 55 | 17.2 |  |
| Cn1cccc1C(=O)[C@@H](c1ccccc1)N1CCCCC1 | 0.01 |  |  |
| CC(C(=O)c1cccn1C)N1CCCCC1 (stereo not drawn) | 0.038 | 36 |  |
| Cn1cccc1C(=O)C(c1ccccc1)N1C(=O)c2ccccc2C1=O (stereo not drawn) | 0.81 | > 100 | > 123 |
| Cn1cccc1C(O)C(c1ccccc1)N1CCCCC1 (stereo in doubt) [listing 1 of 2 here] | 0.6 | 46 |  |
| CCOc1ccc(NC(C(=O)c2cccn2C)c2ccccc2)cc1 (stereo not drawn) | 0.83 | > 100 | > 121 |
| Cn1cccc1C(O)C(c1ccccc1)N1CCCCC1 (racemic; form 2) [listing 2 of 2 here] | 1 | 140 |  |

| SMILES | Ki [1] [µM] | Ki [2] [µM] | A-selectivity [3] |
| --- | --- | --- | --- |
| Cn1cccc1C(O)C(c1ccccc1)N1CCCCC1 (stereo in doubt) [listing 2 of 2 here] |  |  | 77 |
| Cn1cccc1C(=O)C(N)c1ccccc1 (stereo not drawn) | 0.095 | 42 | 442 |
| Cn1cccc1C(O)CN1CCCCC1 (stereo not drawn) | 0.51 | 23.9 | 47 |
| CN(C)C(C(=O)c1cccn1C)c1ccccc1 (stereo not drawn) | 1.75 | 875 | 500 |
| Cn1cccc1C(=O)[C@@H](c1ccccc1)N1CCSCC1 | 0.076 | 400 | 5260 |
| Cn1cccc1C(O)C(c1ccccc1)N1CCCCC1 (racemic; form 1) [listing 2 of 2 here] |  |  | 0.29 |
| Cn1cccc1C(O)C(c1ccccc1)N1CCCCC1 (single isomer, unassigned; form 2) [listing 1 of 2 here] | 7 | 1.24 |  |
| Cn1cccc1C(=O)C(c1ccccc1)N1CCOCC1 (stereo not drawn) | 0.35 | > 100 | > 286 |
| Cn1cccc1C(O)C(c1ccccc1)N1CCCCC1 (single isomer, unassigned; (-)) [listing 2 of 2 here] |  |  | 0.31 |
| Cn1cccc1C(=O)C(c1ccccc1)N1CCN(Cc2ccccc2)CC1 (stereo not drawn) | 0.93 | 10 | 11 |
| Cn1cccc1C(O)C(c1ccccc1)N1CCCCC1 (single isomer, unassigned; form 2) [listing 2 of 2 here] |  |  | 0.18 |
| Cn1cccc1C(=O)[C@@H](c1ccccc1)N1CCCC1 | 0.0035 | 700 |  |
| Cn1cccc1C(=O)[C@H](c1ccccc1)N1CCCC1 | 0.0095 | 500 |  |
| Cn1cccc1C(O)C(c1ccccc1)N1CCCCC1 (single isomer, unassigned; form 1) [listing 2 of 2 here] |  |  | > 19 |
| Cn1cccc1C(=O)[C@H](c1ccccc1)N1CCSCC1 | 0.082 | 100 | 1220 |
